Measurements taken from ChEMBL document CHEMBL4431301, “The Medicinal Chemistry of Dengue Virus” (J Med Chem, 2016).
pEC50, pIC50: −log10 of the molar value. Where a SMILES comes first, the peptide text is derived from it.

What was measured:
[1] = target: T1, Genome polyprotein (dengue virus type 2, UniProt P29990); experiment: Inhibition of Dengue virus 2 Taiwanese PL046 NS2B-NS3 protease using Ac-TTSTRR-pNA as substrate preincubated for 10 mins followed by addition of substrate measured after 2 hrs
[2] = test system: dengue virus type 3; experiment: Antiviral activity against Dengue virus 3 P12-08 infected in african green monkey Vero cells assessed as reduction in virus replication after 72 hrs by foci-forming assay; format: functional, organism-based; conditions: P12-08, Vero
[3] = test system: dengue virus type 2; experiment: Antiviral activity against Dengue virus 2 NGC infected in african green monkey Vero cells assessed as reduction in virus replication after 72 hrs by foci-forming assay; format: functional, organism-based
[4] = Cytotoxicity against african green monkey Vero cells after 72 hrs by MTT assay; format: cell-based; conditions: chlorocebus sabaeus
[5] = test system: dengue virus type 4; experiment: Antiviral activity against Dengue virus 4 P11-08 infected in african green monkey Vero cells assessed as reduction in virus replication after 72 hrs by foci-forming assay; format: functional, organism-based; conditions: P11-08, Vero
[6] = test system: dengue virus type 1; experiment: Antiviral activity against Dengue virus 1 P03-08 infected in african green monkey Vero cells assessed as reduction in virus replication after 72 hrs by foci-forming assay; format: functional, organism-based; conditions: P03-08, Vero
[7] = test system: dengue virus type 1; experiment: Antiviral activity against Dengue virus 1 West Pacific infected in BHK21 cells assessed as reduction in viral titer after 48 hrs by plaque assay; format: functional, organism-based; conditions: BHK-21, 48 h
[8] = test system: dengue virus type 4; experiment: Antiviral activity against Dengue virus 4 H241 infected in BHK21 cells assessed as reduction in viral titer after 48 hrs by plaque assay; format: functional, organism-based; conditions: H241, BHK-21, 48 h
[9] = test system: dengue virus type 2; experiment: Antiviral activity against Dengue virus 2 NGC infected in human A549 cells assessed as reduction in viral envelope protein production after 48 hrs by CFI assay; format: functional, organism-based; conditions: A549, 48 h
[10] = test system: dengue virus type 2; experiment: Antiviral activity against Dengue virus 2 NGC infected in BHK21 cells assessed as reduction in viral titer after 48 hrs by plaque assay; format: functional, organism-based; conditions: BHK-21, 48 h
[11] = test system: dengue virus type 3; experiment: Antiviral activity against Dengue virus 3 H87 infected in BHK21 cells assessed as reduction in viral titer after 48 hrs by plaque assay; format: functional, organism-based; conditions: H87, BHK-21, 48 h
[12] = Selectivity index, ratio of CC50 for human A549 cells to EC50 for Dengue virus 2 infected in human A549 cells; format: toxicity, cell-based; conditions: read-out: Ratio CC50/EC50
[13] = test system: dengue virus type 2; experiment: Antiviral activity against Dengue virus 2 infected in human A549 cells assessed as decrease in viral envelope protein production after 48 hrs by CFI assay; format: functional, organism-based; conditions: A549, 48 h
[14] = test system: dengue virus type 2; experiment: Antiviral activity against Dengue virus 2 NGC infected in monkey LLC-MK2 cells preincubated with virus for 1 hr followed by cell infection for 1 hr by focus forming unit assay; format: functional, organism-based
[15] = target: T1, Genome polyprotein; experiment: Inhibition of Dengue virus 2 GFP/DsRed fused NS2B-NS3 protease co-transfected in HEK293T cells by Western blot analysis; format: cell-based
[16] = target: T1, Genome polyprotein; experiment: Inhibition of Dengue virus 2 NS2B-NS3 protease expressed in Escherichia coli BL21(DE3) using Boc-Gly-Arg-Arg-7-amino-4-methylcoumarin as substrate after 10 mins by fluorescence assay
[17] = test system: dengue virus type 2; experiment: Antiviral activity against Dengue virus 2 infected in african green monkey Vero cells preincubated with cells followed by viral infection measured after 4 days by immunofluorescence staining based fluorescence microscope; format: functional, organism-based
[18] = test system: dengue virus type 4; experiment: Antiviral activity against Dengue virus 4 H241 infected in african green monkey Vero cells assessed as blockage of viral entry after 72 hrs by foci-forming assay; format: functional, organism-based
[19] = test system: dengue virus type 2; experiment: Antiviral activity against Dengue virus 2 16681 infected in african green monkey Vero cells assessed as blockage of viral entry after 72 hrs by foci-forming assay; format: functional, organism-based; conditions: Dengue virus, 16681, Vero
[20] = test system: dengue virus type 1; experiment: Antiviral activity against Dengue virus 1 Hawaii infected in african green monkey Vero cells assessed as blockage of viral entry after 72 hrs by foci-forming assay; format: functional, organism-based
[21] = test system: dengue virus type 3; experiment: Antiviral activity against Dengue virus 3 H87 infected in african green monkey Vero cells assessed as blockage of viral entry after 72 hrs by foci-forming assay; format: functional, organism-based

## CCCCCCCCCCCCCCCC[N+](CC)(CO)CO
[1]
  pIC50: 4.65

## Cc1ccc(S(=O)(=O)Nc2cc(SCC(=O)O)c(O)c3ccccc23)cc1[N+](=O)[O-]
[2]
  pEC50: 5.61
[3]
  pEC50: 6.01
[4]
  CC50 at 72 h: 67.3 µM
[5]
  pEC50: 6.13
[6]
  pEC50: 6.01

## COc1ccc(-c2csc(NC(=O)c3cc(C(C)(C)C)cc(C(C)(C)C)c3)n2)cc1
[7]
  pEC50: 5.39 to 6.00
[8]
  pEC50: 5.39 to 6.00
[9]
  pEC50: 6.00
[10]
  pEC50: 5.80
[11]
  pEC50: 5.39 to 6.00

## CC(=O)O[C@H]1[C@H]2c3cc4c(cc3CN3CCC(=C[C@@H]1O)[C@H]23)OCO4
[12]
  selectivity ratio: > 750
[13]
  pEC50: 6.40

## CC[C@H](C)[C@H](NC(=O)[C@H](CC(C)C)NC(=O)[C@@H](NC(=O)[C@H](Cc1ccccc1)NC(=O)[C@H](Cc1c[nH]c2ccccc12)NC(=O)[C@@H](N)Cc1ccccc1)[C@@H](C)O)C(=O)N[C@@H](CCCCN)C(=O)N[C@H](C(=O)N[C@@H](CCC(N)=O)C(=O)N[C@@H](C)C(=O)N[C@@H](CCCCN)C(=O)N[C@@H](CCC(N)=O)C(=O)N1CCC[C@H]1C(=O)N[C@@H](C)C(=O)N[C@@H](CCCNC(=N)N)C(=O)N[C@@H](Cc1ccc(O)cc1)C(=O)N[C@@H](CCCNC(=N)N)C(=O)N[C@@H](CCCNC(=N)N)C(=O)N[C@@H](Cc1ccccc1)C(=O)N[C@@H](CS)C(=O)O)[C@@H](C)O (H-FWFTLIKTQAKQPARYRRFC-OH)
[14]
  pIC50: 5.15

## O=C(Nc1nc2cc(O)c(O)cc2s1)c1ccccc1Oc1ccc2cc(O)ccc2c1
[15]
  pIC50: 5.49
[16]
  pIC50: 5.38
[17]
  pEC50: 6.10

## CC[C@H](C)[C@H](NC(=O)[C@H](Cc1c[nH]c2ccccc12)NC(=O)[C@@H](NC(=O)[C@H](CCC(=O)O)NC(=O)[C@@H](NC(=O)[C@H](CCCNC(=N)N)NC(=O)[C@H](CCC(N)=O)NC(=O)[C@@H](NC(=O)[C@H](Cc1cnc[nH]1)NC(=O)[C@H](CCCCN)NC(=O)[C@H](Cc1c[nH]c2ccccc12)NC(=O)[C@H](C)NC(=O)CNC(=O)[C@H](CCC(=O)O)NC(=O)[C@H](CO)NC(=O)[C@H](CO)NC(=O)[C@H](CCSC)NC(=O)[C@H](Cc1c[nH]c2ccccc12)NC(=O)[C@@H](NC(=O)[C@H](CCC(=O)O)NC(=O)[C@@H](NC(=O)[C@H](CCCNC(=N)N)NC(=O)[C@@H](NC(=O)[C@H](CCC(=O)O)NC(=O)[C@H](CC(C)C)NC(=O)CNC(=O)[C@H](CCSC)NC(=O)CNC(=O)[C@@H](NC(=O)[C@H](Cc1cnc[nH]1)NC(=O)[C@@H]1CCCN1C(=O)[C@@H](NC(=O)[C@H](CC(C)C)NC(=O)[C@H](C)NC(=O)[C@@H](NC(=O)[C@@H](N)CO)C(C)C)C(C)C)C(C)C)[C@@H](C)O)[C@@H](C)O)[C@@H](C)O)C(C)C)[C@@H](C)CC)[C@H](C)O)C(=O)N[C@@H](CC(C)C)C(=O)N[C@@H](CCCNC(=N)N)C(=O)N[C@@H](Cc1cnc[nH]1)C(=O)N1CCC[C@H]1C(=O)NCC(=O)O
[18]
  pEC50: 4.51 to 4.62
[19]
  pEC50: 4.51 to 4.62
[20]
  pEC50: 4.51 to 4.62
[21]
  pEC50: 4.51 to 4.62
